Experimental data published in PMC9794833, “Ligand recognition and activation of neuromedin U receptor 2” (Nature Communications, 2022).
Several values for one entry are separate records, joined by “and”; a condition that tells them apart may be missing. Identical values can stand only once. Like-named read-outs stand apart in the source and are kept apart here. Where no end group is shown, it is not given here.

Assays:
Assay type in all cases: cell-based
NMU2 F131L = target: T1, NMU2 F131L (Homo sapiens, UniProt Q9GZQ4, F131L); test: IP accumulation assay, NMU2 mutant F131L; settings: IP accumulation
T1 construct: HA signal peptide (N); expressed in transfected cells; host or cells: HEK 293F, transient transfection, PTT5 vector
T1 sequence (Q9GZQ4 whole entry F131L): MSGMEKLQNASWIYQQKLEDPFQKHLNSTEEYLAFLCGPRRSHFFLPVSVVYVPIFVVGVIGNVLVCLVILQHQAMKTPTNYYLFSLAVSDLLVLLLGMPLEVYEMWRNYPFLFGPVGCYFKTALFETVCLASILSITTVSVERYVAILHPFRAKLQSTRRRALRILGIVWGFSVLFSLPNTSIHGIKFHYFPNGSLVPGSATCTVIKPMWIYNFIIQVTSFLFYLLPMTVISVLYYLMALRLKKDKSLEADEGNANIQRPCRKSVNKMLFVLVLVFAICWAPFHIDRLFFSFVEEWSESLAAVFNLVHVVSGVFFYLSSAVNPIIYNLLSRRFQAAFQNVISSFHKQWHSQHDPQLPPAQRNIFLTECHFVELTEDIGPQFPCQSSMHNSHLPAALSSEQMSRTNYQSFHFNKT
Protocol: (§1) NMU2 constructs of WT and mutants were constructed into PTT5 vector (Invitrogen), as mentioned above. HEK 293F cells were transiently transfected with WT or mutants with total of 2000 ng plasmid DNA using transfection reagent (PEI MAX 2000, Polysciences) and cultivated at 37 °C with 5% CO2. Cells were collected after 48-h transfection. IP accumulation was tested by IP-One Gq assay kit (Cisbio Bioassays, 62IPAPEJ) following the instruction manual. In general, cells were resuspended with 1× HBSS buffer containing 20 mM LiCl (stimulation buffer) and seeded into the white 384-well microplates (Proxi Plate^TM-384 Plus, PerkinElmer) with a density of 20,000 per well. Cells were preincubated with 10^−5 M R-PSOP (provided by Boehringer Ingelheim company, Germany) and gradient concentration from 10^−4 to 10^−11 M of NMU-25 or gradient concentration 10^−4 to 10^−11 M of NMU-25 alone in stimulation buffer at 37 °C for 90 min. The cryptate-labeled anti-IP1 monoclonal antibody and d2-labeled IP1 were diluted with lysis & detection buffer (1:20) and added to each well by 3 μl, respectively. The plates were incubated at room temperature for 60 minutes and then read in a Synerg^TM H1 microplate reader (BioTek) with excitation at 330 nm and emission at 620 and 665 nm. The IP1 production was calculated by a standard dose–response curve and analyzed by GraphPad Prism 8.0.

NMU2 W281A = target: T2, NMU2 W281A (Homo sapiens, UniProt Q9GZQ4, W281A); test: TRUPATH assay, NMU2 mutant W281A
T2 construct: HA signal peptide (N); expressed in transfected cells; host or cells: HEK 293F
T2 sequence (Q9GZQ4 whole entry W281A): as the sequence (Q9GZQ4 whole entry F131L) above, with L131F, W281A counted along it
Protocol: (§2) The plasmids of Gαi1, Gβ3, and Gγ9 used for the TRUPATH assay were purchased from Addgene (TRUPATH Kit, #1000000163). NMU2 constructs of WT and mutants were constructed into a PTT5 vector (Invitrogen) with an N-terminal HA signal peptide followed by a Flag tag. HEK 293F cells were transiently transfected with WT or mutants of NMU2, Gαi1, Gβ3, and Gγ9 at an […] ratio of 4:1:1:1 with a total of 3500 ng plasmid DNA using a transfection reagent (PEI MAX 2000, Polysciences) and cultivated at 37 °C with 5 % CO2. Cells were collected after 48-h transfection. The expression level of the receptor was measured by incubating 10 μl cells with 15 μl TBS buffer supplemented with 4% bovine serum albumin, 20% (v/v) viability staining solution7-AAD (Invitrogen, Cat#00-6993-50), and ANTI-FLAG M2-FITC antibody (Sigma, F4049; 1:100 diluted by TBS) at 4 °C for 20 min. After incubation, 175 μl TBS buffer was added, and the fluorescence signal on the cell surface was detected by an FCM (flow cytometry) reader (Millipore). The cells were diluted with 1× HBSS (Hank’s balanced salt solution) balanced buffer supplemented with 25 mM HEPES, pH 7.4, and seeded onto the 96-well opaque cell culture plates (Beyotime) at a density of 18,000 cells per well by 60 μl. Freshly prepared 50 μM coelenterazine 400a (Nanolight Technologies) was added into the well by 10 μl. After a 5 min equilibration time in the darkness, plates were then read in a Synerg^TM H1 microplate reader (BioTek) with excitation at 395 nm and emission at 410 and 515 nm by serially three times. Then, 30 μl of 3.3× agonists were added into the wells with a gradient final concentration from 10^−4–10^−13 M. Plates were read immediately again by serially five times. Data were processed and analyzed following the method in the literature by using GraphPad Prism 8.0.

NMU2 = target: T3, NMU2 (Homo sapiens, UniProt Q9GZQ4); test: IP accumulation assay (IP-One Gq kit), WT NMU2; settings: IP accumulation
T3 construct: HA signal peptide (N); expressed in transfected cells; host or cells: HEK 293F
T3 sequence (Q9GZQ4 whole entry): as the sequence (Q9GZQ4 whole entry F131L) above, with L131F counted along it
Protocol: as §1

NMU2 F305A = target: T4, NMU2 F305A (Homo sapiens, UniProt Q9GZQ4, F305A); test: TRUPATH assay, NMU2 mutant F305A
T4 construct: HA signal peptide (N); expressed in transfected cells; host or cells: HEK 293F
T4 sequence (Q9GZQ4 whole entry F305A): as the sequence (Q9GZQ4 whole entry F131L) above, with L131F, F305A counted along it
Protocol: as §2

NMU2 F291A = target: T5, NMU2 F291A (Homo sapiens, UniProt Q9GZQ4, F291A); test: TRUPATH assay, NMU2 mutant F291A
T5 construct: HA signal peptide (N); expressed in transfected cells; host or cells: HEK 293F
T5 sequence (Q9GZQ4 whole entry F291A): as the sequence (Q9GZQ4 whole entry F131L) above, with L131F, F291A counted along it
Protocol: as §2

NMU2 N109A = target: T6, NMU2 N109A (Homo sapiens, UniProt Q9GZQ4, N109A); test: TRUPATH assay, NMU2 mutant N109A
T6 construct: HA signal peptide (N); expressed in transfected cells; host or cells: HEK 293F
T6 sequence (Q9GZQ4 whole entry N109A): as the sequence (Q9GZQ4 whole entry F131L) above, with N109A, L131F counted along it
Protocol: as §2

NMU2 F126A = target: T7, NMU2 F126A (Homo sapiens, UniProt Q9GZQ4, F126A); test: TRUPATH assay, NMU2 mutant F126A
T7 construct: HA signal peptide (N); expressed in transfected cells; host or cells: HEK 293F
T7 sequence (Q9GZQ4 whole entry F126A): as the sequence (Q9GZQ4 whole entry F131L) above, with F126A, L131F counted along it
Protocol: as §2

NMU2 A302H = target: T8, NMU2 A302H (Homo sapiens, UniProt Q9GZQ4, A302H); test: TRUPATH assay, NMU2 mutant A302H
T8 construct: HA signal peptide (N); expressed in transfected cells; host or cells: HEK 293F
T8 sequence (Q9GZQ4 whole entry A302H): as the sequence (Q9GZQ4 whole entry F131L) above, with L131F, A302H counted along it
Protocol: as §2

NMU2 R288A = target: T9, NMU2 R288A (Homo sapiens, UniProt Q9GZQ4, R288A); test: IP accumulation assay, NMU2 mutant R288A
T9 construct: HA signal peptide (N); expressed in transfected cells; host or cells: HEK 293F
T9 sequence (Q9GZQ4 whole entry R288A): as the sequence (Q9GZQ4 whole entry F131L) above, with L131F, R288A counted along it
Protocol: as §1

NMU2 F177C = target: T10, NMU2 F177C (Homo sapiens, UniProt Q9GZQ4, F177C); test: IP accumulation assay, NMU2 mutant F177C; settings: IP accumulation
T10 construct: HA signal peptide (N); expressed in transfected cells; host or cells: HEK 293F, transient transfection, PTT5 vector
T10 sequence (Q9GZQ4 whole entry F177C): as the sequence (Q9GZQ4 whole entry F131L) above, with L131F, F177C counted along it
Protocol: as §1

[1] = read-out: pEC50±SEM, NmU-25 alone (converted)
[2] = read-out: pEC50 mean±SEM (converted)

FRVDEEFQSPFASQSRGYFLFRPRN-NH2 [NmU-25]
EC50 (NMU2 F131L; read-out: EC50, NmU-25 alone): 11 nM
EC50 (NMU2 F131L; [1]): 10.7 nM
EC50 ratio EC50(mutant)/EC50(WT) (NMU2 W281A): 24
Span (window between Emax and minimal agonist response) (NMU2 W281A): 55±9 % of WT
G protein activation (TRUPATH), dose-response point (NMU2 W281A; Log [agonist] M -4): 31.1201 and 49.629
ΔpEC50 (from WT) (NMU2 W281A; individual experiments): -1.673 and -1.545 and -1.465
EC50 (NMU2 W281A; read-out: EC50): 814 nM
EC50 (NMU2 W281A; [2]): 813 nM
EC50 (NMU2; read-out: EC50, NmU-25 alone): 17 nM
EC50 (NMU2; [1]): 16.6 nM
EC50 ratio EC50(mutant)/EC50(WT) (NMU2 F305A): 77
Span (window between Emax and minimal agonist response) (NMU2 F305A): 95±11 % of WT
G protein activation (TRUPATH), dose-response point (NMU2 F305A; Log [agonist] M -4): 46.0579 and 58.1697 and 76.8594 and 61.8818
ΔpEC50 (from WT) (NMU2 F305A; individual experiments): -2.165 and -2.457 and -1.8628 and -2.734
Emax (NMU2 F305A; peer review file): 83%
potency reduction (NMU2 F305A; peer review file): 33 fold
EC50 (NMU2 F305A; read-out: EC50): 2600 nM
EC50 (NMU2 F305A; [2]): 2630 nM
EC50 ratio EC50(mutant)/EC50(WT) (NMU2 F291A): 22
Span (window between Emax and minimal agonist response) (NMU2 F291A): 126±11 % of WT
G protein activation (TRUPATH), dose-response point (NMU2 F291A; Log [agonist] M -4): 101.173 and 139.066
G protein activation (TRUPATH), dose-response point (NMU2 F291A; Log [agonist] M -5): 80.701 and 107.283 and 106.417
span (NMU2 F291A; compared with wild-type, peer review file): 127%
ΔpEC50 (from WT) (NMU2 F291A; individual experiments): -0.7238 and -1.311 and -0.9879
EC50 (NMU2 F291A; read-out: EC50): 737 nM
EC50 (NMU2 F291A; [2]): 741 nM
EC50 ratio EC50(mutant)/EC50(WT) (NMU2 N109A): 9
Span (window between Emax and minimal agonist response) (NMU2 N109A): 138±11 % of WT
G protein activation (TRUPATH), dose-response point (NMU2 N109A; Log [agonist] M -4): 126.259
G protein activation (TRUPATH), dose-response point (NMU2 N109A; Log [agonist] M -5): 106.487 and 123.773 and 113.723
G protein activation (TRUPATH), dose-response point (NMU2 N109A; Log [agonist] M -6): 98.1363 and 71.1117 and 54.8765
ΔpEC50 (from WT) (NMU2 N109A; individual experiments): -1.459 and -0.6318 and -0.9885
EC50 (NMU2 N109A; read-out: EC50): 298 nM
EC50 (NMU2 N109A; [2]): 295 nM
EC50 ratio EC50(mutant)/EC50(WT) (NMU2 F126A): 18
Span (window between Emax and minimal agonist response) (NMU2 F126A): 27±10 % of WT
G protein activation (TRUPATH), dose-response point (NMU2 F126A; Log [agonist] M -4): 26.6728 and 20.7775
ΔpEC50 (from WT) (NMU2 F126A; individual experiments): -2.148 and -1.125 and -1.6853
EC50 (NMU2 F126A; read-out: EC50): 625 nM
EC50 (NMU2 F126A; [2]): 631 nM
EC50 ratio EC50(mutant)/EC50(WT) (NMU2 A302H): 5
Span (window between Emax and minimal agonist response) (NMU2 A302H): 97±11 % of WT
G protein activation (TRUPATH), dose-response point (NMU2 A302H; Log [agonist] M -4): 97.2233 and 94.5294
G protein activation (TRUPATH), dose-response point (NMU2 A302H; Log [agonist] M -6): 58.8982 and 69.5076 and 54.0633
ΔpEC50 (from WT) (NMU2 A302H; individual experiments): -0.7587 and -0.754 and -0.956
EC50 (NMU2 A302H; read-out: EC50): 162 nM
EC50 (NMU2 A302H; [2]): 162 nM
NmU-25-induced IP accumulation (in words) (NMU2 R288A): totally eliminated
EC50 (NMU2 F177C; read-out: EC50, NmU-25 alone): 7 nM
EC50 (NMU2 F177C; [1]): 7.08 nM
